The term Ki denotes a measure of affinity in units of concentration, obtained from inhibition or displacement.

The target of one test is α7 nAChR (Rattus norvegicus, UniProt Q05941). Nature of the test: Test A: 125I-α-bungarotoxin binding to rat hippocampal membranes (affinity at α7 nAChR subtype). As for the experimental part:
Test A—Assay for Affinity at α7 nAChR Subtype
125I-α-Bungarotoxin (BTX) binding to rat hippocampal membranes. Rat hippocampi were homogenized in 20 volumes of cold homogenization buffer (HB: concentrations of constituents (mM): tris(hydroxymethyl)aminomethane 50; MgCl2 1; NaCl 120; KCl 5: pH 7.4). The homogenate was centrifuged for 5 minutes at 1000 g, the supernatant was saved and the pellet re-extracted. The pooled supernatants were centrifuged for 20 minutes at 12000 g, washed, and resuspended in HB. Membranes (30-80 μg) were incubated with 5 nM [^125I]α-BTX, 1 mg/mL BSA (bovine serum albumin), test drug, and either 2 mM CaCl2 or 0.5 mM EGTA [ethylene glycol-bis(β-aminoethylether)] for 2 hours at 21° C., and then filtered and washed 4 times over Whatman glass fibre filters (thickness C) using a Brandel cell harvester. […]
IC50 values and pseudo Hill coefficients (nH) were calculated using the non-linear curve-fitting program ALLFIT (DeLean A, Munson P J and Rodbard D (1977) Am. J. Physiol., 235:E97-E102). […]
where a value of n=1 was used whenever nH<1.5 and a value of n=2 was used when nH≧1.5. […] Ki values were determined using 6 or more drug concentrations. […]

Another test has as its target α4 nAChR (Rattus norvegicus, UniProt P09483+P12390). It counts as binding. As to the method:
Binding Data Analysis for Tests A and B
Ki values were determined using 6 or more drug concentrations.

pKd: −log10 of the molar value.

Sequence of α7 nAChR (Q05941 23-502): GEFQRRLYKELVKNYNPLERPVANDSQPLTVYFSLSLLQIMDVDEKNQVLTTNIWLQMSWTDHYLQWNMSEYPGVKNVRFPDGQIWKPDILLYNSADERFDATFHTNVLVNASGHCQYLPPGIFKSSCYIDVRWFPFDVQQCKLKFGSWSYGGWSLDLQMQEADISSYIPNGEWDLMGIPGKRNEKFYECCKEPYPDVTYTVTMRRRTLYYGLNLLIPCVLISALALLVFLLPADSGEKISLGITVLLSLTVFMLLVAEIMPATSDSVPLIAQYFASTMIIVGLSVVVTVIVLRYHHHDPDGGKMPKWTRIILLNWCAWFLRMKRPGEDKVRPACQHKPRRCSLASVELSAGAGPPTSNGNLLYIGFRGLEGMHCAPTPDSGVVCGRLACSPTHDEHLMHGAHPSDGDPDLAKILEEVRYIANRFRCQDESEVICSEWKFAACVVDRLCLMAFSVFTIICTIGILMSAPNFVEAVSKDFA
Sequence of α4 nAChR (P09483 31-630): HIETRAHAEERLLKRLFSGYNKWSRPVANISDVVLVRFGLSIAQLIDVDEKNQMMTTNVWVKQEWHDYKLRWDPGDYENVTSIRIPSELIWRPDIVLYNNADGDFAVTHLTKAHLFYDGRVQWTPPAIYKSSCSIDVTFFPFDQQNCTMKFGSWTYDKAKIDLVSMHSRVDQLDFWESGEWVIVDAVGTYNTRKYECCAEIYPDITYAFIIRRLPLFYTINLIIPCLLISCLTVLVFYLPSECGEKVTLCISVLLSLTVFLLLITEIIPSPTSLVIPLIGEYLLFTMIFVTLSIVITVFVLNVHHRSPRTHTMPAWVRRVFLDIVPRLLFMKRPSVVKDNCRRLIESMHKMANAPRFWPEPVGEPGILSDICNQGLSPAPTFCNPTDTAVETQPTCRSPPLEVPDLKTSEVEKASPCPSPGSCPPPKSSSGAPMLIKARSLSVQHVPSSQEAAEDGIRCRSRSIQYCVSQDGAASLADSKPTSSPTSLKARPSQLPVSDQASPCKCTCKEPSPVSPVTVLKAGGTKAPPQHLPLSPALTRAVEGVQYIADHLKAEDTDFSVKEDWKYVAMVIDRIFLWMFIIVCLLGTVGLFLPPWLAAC
Sequence of α4 nAChR (P12390 25-500): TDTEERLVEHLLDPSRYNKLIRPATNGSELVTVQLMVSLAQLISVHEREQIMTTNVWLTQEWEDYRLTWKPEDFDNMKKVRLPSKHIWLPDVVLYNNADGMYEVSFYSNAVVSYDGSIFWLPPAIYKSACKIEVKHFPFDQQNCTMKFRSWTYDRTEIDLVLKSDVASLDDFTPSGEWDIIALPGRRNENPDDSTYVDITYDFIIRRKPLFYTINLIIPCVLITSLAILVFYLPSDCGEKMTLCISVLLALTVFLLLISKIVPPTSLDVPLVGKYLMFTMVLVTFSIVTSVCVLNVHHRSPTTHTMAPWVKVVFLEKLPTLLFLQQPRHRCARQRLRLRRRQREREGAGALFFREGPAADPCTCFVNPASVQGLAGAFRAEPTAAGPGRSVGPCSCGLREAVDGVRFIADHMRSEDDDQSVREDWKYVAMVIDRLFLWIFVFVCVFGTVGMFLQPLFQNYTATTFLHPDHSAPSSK

Consider “125I-α-Bungarotoxin [Compound 125I-α-BTX, reference compound]”, for which the pKd at α7 nAChR (read-out: KD of radioligand from saturation curves (one site model)) is 8.78. `c1cc(-c2cnc3c(c2)C[C@@]2(CN4CCC2CC4)O3)co1` [Compound 3, (2′R)-5′-(3-furanyl)spiro[1-azabicyclo[2.2.2]octane-3,2′(3′H)-furo[2,3-b]pyridine]]: at α7 nAChR (125I-α-BTX displacement, rat hippocampal membranes), the affinity, expressed as Ki, was 0.033 nM. Also, on α4 nAChR, the “nAChR Binding Selectivity (Ratio α4 Ki/α7 Ki)” value is 88000.

The record behind these values is patent publication US6569865B2, “Spiro 1-azabicyclo[2.2.2]octane-3,2′(3′h)-furo[2,3-b]pyridine” (priority 2001, dated 2003).
